What was measured:
[1] = system: breast cancer cell line MX-1; assay: MX-1 cell line proliferation assay; format: cell-based; conditions: MX-1 cells, 3-day proliferation assay, Cell Titer Glo; read-out: Cellular proliferation: EC50
Method in brief: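 EC50 comes from sigmoidal fits of Cell Titer Glo luminescence relative to DMSO controls, with assay MSR 2.1. Ten-point 3-fold dilutions (top 3 or 1 μM final) were added to MX-1 breast cancer cells after overnight adhesion. Cells were at 5000/well and proliferation ran 3 days.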

[2] = molecular target: T1, BRD4 (BDI_K57-E168) (Homo sapiens, UniProt O60885); assay: TR-FRET bromodomain binding assay, first bromodomain of BRD4; conditions: 100 nM probe
T1 construct: BD1: amino acids K57-E168; made in house
Method in brief: (§1)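 Displacement of a fluorescent Alexa647 BET-inhibitor probe (100 nM with BDI, 30 nM with BDII) from His-tagged BRD4 bromodomains was monitored by europium TR-FRET after one hour at room temperature. Data were normalized to no-compound and 1 μM unlabelled probe controls, fitted with a four-parameter logistic, and IC50s converted to Ki.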

[3] = molecular target: T2, BRD4 (BDII_E352-M457) (Homo sapiens, UniProt O60885); assay: TR-FRET bromodomain binding assay, second bromodomain of BRD4; conditions: 30 nM probe
T2 construct: protocol; made in house
Method in brief: as §1

[4] = TR-FRET assay protocol G (compound 0.92 μM-15 pM)
[5] = TR-FRET assay protocol E (compound 9.19 μM-150 pM)

Compound	EC50 [1]	Ki [2, 4]	Ki [3, 4]	Ki [2, 5]	Ki [3, 5]
CN(C)C(=O)CCC1c2c[nH]c3c(=O)n(C)cc(c23)-c2cc(CS(C)(=O)=O)ccc2N1c1ccc(F)cc1F (stereo not drawn) [Example 119, 3-(4-(2,4-difluorophenyl)-10-methyl-7-((methylsulfonyl)methyl)-11-oxo-3,4,10,11-tetrahydro-1H-1,4,10-triazadibenzo[cd,f]azulen-3-yl)-N,N-dimethylpropanamide]	134 nM	11.9 nM	0.602 nM		
Cn1cc2c3c(c[nH]c3c1=O)C(CCC(=O)N1CCOCC1)N(c1ccc(F)cc1F)c1ccc(CS(C)(=O)=O)cc1-2 (stereo not drawn) [Example 120, 4-(2,4-difluorophenyl)-10-methyl-7-((methylsulfonyl)methyl)-3-(3-morpholino-3-oxopropyl)-3,4-dihydro-1H-1,4,10-triazadibenzo[cd,f]azulen-11(10H)-one]	> 1000 nM	9.28 nM	1.59 nM		
CCC1c2c[nH]c3c(=O)n(C)cc(c23)-c2cc(S(=O)(=O)CC)ccc2N1CC1CC1 (stereo not drawn) [Example 3, 4-(cyclopropylmethyl)-3-ethyl-7-(ethylsulfonyl)-10-methyl-3,4-dihydro-1H-1,4,10-triazadibenzo[cd,f]azulen-11(10H)-one]	48.7 nM			46 nM	8.91 nM
CCC(=O)N1Cc2c[nH]c3c(=O)n(C)cc(c23)-c2cc(CS(C)(=O)=O)ccc21 [Example 105, 10-methyl-7-((methylsulfonyl)methyl)-4-propionyl-3,4-dihydro-1H-1,4,10-triazadibenzo[cd,f]azulen-11(10H)-one]	16.2 nM	5.49 nM	2.68 nM		
CCOCCCC1c2c[nH]c3c(=O)n(C)cc(c23)-c2cc(CS(C)(=O)=O)ccc2N1c1ccc(F)cc1F (stereo not drawn) [Example 148, 4-(2,4-difluorophenyl)-3-(3-ethoxypropyl)-10-methyl-7-((methylsulfonyl)methyl)-3,4-dihydro-1H-1,4,10-triazadibenzo[cd,f]azulen-11(10H)-one]	31.9 nM	6.77 nM	0.54 nM		
Cn1cc2c3c(c[nH]c3c1=O)CN(CC(C)(C)CN1CCCC1)c1ccc(CS(C)(=O)=O)cc1-2 [Example 178]	123 nM	4.36 nM	4.38 nM		
COC(=O)CCC(=O)N1Cc2c[nH]c3c(=O)n(C)cc(c23)-c2cc(CS(C)(=O)=O)ccc21 [Example 111, methyl 4-(10-methyl-7-((methylsulfonyl)methyl)-11-oxo-10,11-dihydro-1H-1,4,10-triazadibenzo[cd,f]azulen-4(3H)-yl)-4-oxobutanoate]	84 nM	7.7 nM	3.31 nM		
CCOC(=O)C1c2c[nH]c3c(=O)n(C)cc(c23)-c2cc(CS(C)(=O)=O)ccc2N1c1ccc(F)cc1 (racemic) [Example 34, ethyl 4-(4-fluorophenyl)-10-methyl-7-((methylsulfonyl)methyl)-11-oxo-3,4,10,11-tetrahydro-1H-1,4,10-triazadibenzo[cd,f]azulene-3-carboxylate]	14.7 nM	2.45 nM	3.89 nM		
CCCCNC(=O)C1c2c[nH]c3c(=O)n(C)cc(c23)-c2cc(CS(C)(=O)=O)ccc2N1c1ccc(F)cc1F (stereo not drawn) [Example 157, N-butyl-4-(2,4-difluorophenyl)-10-methyl-7-((methylsulfonyl)methyl)-11-oxo-3,4,10,11-tetrahydro-1H-1,4,10-triazadibenzo[cd,f]azulene-3-carboxamide]	77.4 nM	39.6 nM	23.9 nM		
Cn1cc2c3c(c[nH]c3c1=O)CN(CC1CCN(C(=O)OC(C)(C)C)CC1)c1ccc(CS(C)(=O)=O)cc1-2 [Example 28]	13.7 nM			1.1 nM	1.17 nM
Cn1cc2c3c(c[nH]c3c1=O)CN(CC1CC1)c1ccccc1-2 [Example 13, 4-(cyclopropylmethyl)-10-methyl-3,4-dihydro-1H-1,4,10-triazadibenzo[cd,f]azulen-11(10H)-one]	7.26 nM	4.84 nM	7.68 nM		
Cn1cc2c3c(c[nH]c3c1=O)CN(C(=O)Nc1c(F)cccc1F)c1ccc(CS(C)(=O)=O)cc1-2 [Example 70, N-(2,6-difluorophenyl)-10-methyl-7-((methylsulfonyl)methyl)-11-oxo-10,11-dihydro-1H-1,4,10-triazadibenzo[cd,f]azulene-4(3H)-carboxamide]	131 nM	7.41 nM	1.88 nM		
10-methyl-7-((methylsulfonyl)methyl)-4-(piperidin-4-ylmethyl)-3,4-dihydro-1H-1,4,10-triazadibenzo[cd,f]azulen-11(10H)-one [Example 37]	> 1000 nM	3.36 nM	2.4 nM		
Cn1cc2c3c(c[nH]c3c1=O)C(CNC(=O)CN)N(c1ccc(F)cc1F)c1ccc(CS(C)(=O)=O)cc1-2 (stereo not drawn) [Example 139, 2-amino-N-((4-(2,4-difluorophenyl)-10-methyl-7-((methylsulfonyl)methyl)-11-oxo-3,4,10,11-tetrahydro-1H-1,4,10-triazadibenzo[cd,f]azulen-3-yl)methyl)acetamide]	627 nM	17.5 nM	2.33 nM		

Now from value to compound, other results behind:

EC50 [1]	Ki [2, 4]	Ki [3, 4]	Compound	Ki [2, 5]	Ki [3, 5]
5.43 nM	0.99 nM	0.71 nM	CCNC(=O)c1[nH]c2c(=O)n(C)cc3c2c1CN(c1ccc(C#N)cc1)c1ccc(CS(C)(=O)=O)cc1-3 [Example 203, 4-(4-cyanophenyl)-N-ethyl-10-methyl-7-((methylsulfonyl)methyl)-11-oxo-3,4,10,11-tetrahydro-1H-1,4,10-triazadibenzo[cd,f]azulene-2-carboxamide]		
> 1000 nM	46.1 nM	1.22 nM	Cn1cc2c3c(c[nH]c3c1=O)C(CN1C(=O)c3ccccc3C1=O)N(c1ccc(F)cc1F)c1ccc(CS(C)(=O)=O)cc1-2 [Example 204, (S)-2-((4-(2,4-difluorophenyl)-10-methyl-7-((methylsulfonyl)methyl)-11-oxo-3,4,10,11-tetrahydro-1H-1,4,10-triazadibenzo[cd,f]azulen-3-yl)methyl)isoindoline-1,3-dione]		
33 nM	31.6 nM	12.3 nM	COc1cccc(OC)c1C1c2c[nH]c3c(=O)n(C)cc(c23)-c2cc(CS(C)(=O)=O)ccc2N1c1ccc(F)cc1F (racemic) [Example 221, 4-(2,4-difluorophenyl)-3-(2,6-dimethoxyphenyl)-10-methyl-7-((methylsulfonyl)methyl)-3,4-dihydro-1H-1,4,10-triazadibenzo[cd,f]azulen-11(10H)-one]		
57.8 nM	38.6 nM	19.8 nM	Cn1cc2c3c(c[nH]c3c1=O)C(C(=O)NCc1ccccc1)N(c1ccc(F)cc1F)c1ccc(CS(C)(=O)=O)cc1-2 (racemic) [Example 159, N-benzyl-4-(2,4-difluorophenyl)-10-methyl-7-((methylsulfonyl)methyl)-11-oxo-3,4,10,11-tetrahydro-1H-1,4,10-triazadibenzo[cd,f]azulene-3-carboxamide]		
85.2 nM	3.91 nM	1.64 nM	4-(4-chlorophenyl)-10-methyl-2-(1-methyl-1H-pyrazol-4-yl)-7-(methylsulfonyl)-3,4-dihydro-1H-1,4,10-triazadibenzo[cd,f]azulen-11(10H)-one [Example 271]		
899 nM	6.97 nM	1.53 nM	Cn1cc2c3c(c[nH]c3c1=O)CN(Cc1ccccc1OCc1ccccn1)c1ccc(CS(C)(=O)=O)cc1-2 [Example 264, 10-methyl-7-((methylsulfonyl)methyl)-4-(2-(pyridin-2-ylmethoxy)benzyl)-3,4-dihydro-1H-1,4,10-triazadibenzo[cd,f]azulen-11(10H)-one]		
14.2 nM	1.01 nM	3.55 nM	CN1CCN(Cc2[nH]c3c(=O)n(C)cc4c3c2CN(c2ccc(Cl)cc2)c2ccc(CS(C)(=O)=O)cc2-4)CC1 [Example 176, 4-(4-chlorophenyl)-10-methyl-2-((4-methylpiperazin-1-yl)methyl)-7-((methylsulfonyl)methyl)-3,4-dihydro-1H-1,4,10-triazadibenzo[cd,f]azulen-11(10H)-one]		
> 1000 nM	200 nM	29.1 nM	Cn1cc2c3c(c[nH]c3c1=O)C(CN1C(=O)c3ccccc3C1=O)N(c1ccc(F)cc1F)c1ccc(CS(C)(=O)=O)cc1-2 [Example 205, (R)-2-((4-(2,4-difluorophenyl)-10-methyl-7-((methylsulfonyl)methyl)-11-oxo-3,4,10,11-tetrahydro-1H-1,4,10-triazadibenzo[cd,f]azulen-3-yl)methyl)isoindoline-1,3-dione]		
41.6 nM	32.1 nM	21.4 nM	CC(C)CNC(=O)C1c2c[nH]c3c(=O)n(C)cc(c23)-c2cc(CS(C)(=O)=O)ccc2N1c1ccc(F)cc1F (stereo not drawn) [Example 161, 4-(2,4-difluorophenyl)-N-isobutyl-10-methyl-7-((methylsulfonyl)methyl)-11-oxo-3,4,10,11-tetrahydro-1H-1,4,10-triazadibenzo[cd,f]azulene-3-carboxamide]		
118 nM	5.67 nM	7.47 nM	COc1cc(N2Cc3c[nH]c4c(=O)n(C)cc(c34)-c3cc(CS(C)(=O)=O)ccc32)cc(OC)c1OC [Example 211, 10-methyl-7-((methylsulfonyl)methyl)-4-(3,4,5-trimethoxyphenyl)-3,4-dihydro-1H-1,4,10-triazadibenzo[cd,f]azulen-11(10H)-one]		

Source: US10035800B2 (AbbVie Inc., priority 2013, dated 2018)
